Laboratory results: ChEMBL document CHEMBL5029152, “Discovery of Highly Potent and Selective IRAK1 Degraders to Probe Scaffolding Functions of IRAK1 in ABC DLBCL” (J Med Chem, 2021)
Calls of active or inactive are those of the source. No cut-off for these calls is given here.

Experiments:
[1] = target: T1, von Hippel-Lindau disease tumor suppressor/Interleukin-1 receptor-associated kinase 1 (Homo sapiens, UniProt P51617+P40337); test: Protac activity at IRAK1/VHL E3 ligase in HEK293T cells assessed as induction of IRAK1 degradation at 1 uM measured after 24 hrsin presence of proteasome inhibitior MG-132 by Western blot analysis; assay type: cell-based; details: time 24.0 hrs
Target sequence in this assay (P40337 whole entry, looked up): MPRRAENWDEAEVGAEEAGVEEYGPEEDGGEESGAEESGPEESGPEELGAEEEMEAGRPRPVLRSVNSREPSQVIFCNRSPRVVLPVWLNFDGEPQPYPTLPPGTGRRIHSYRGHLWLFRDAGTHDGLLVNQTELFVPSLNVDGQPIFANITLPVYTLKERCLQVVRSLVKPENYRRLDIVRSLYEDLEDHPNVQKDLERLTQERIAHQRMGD
Target sequence in this assay (P51617 whole entry, looked up): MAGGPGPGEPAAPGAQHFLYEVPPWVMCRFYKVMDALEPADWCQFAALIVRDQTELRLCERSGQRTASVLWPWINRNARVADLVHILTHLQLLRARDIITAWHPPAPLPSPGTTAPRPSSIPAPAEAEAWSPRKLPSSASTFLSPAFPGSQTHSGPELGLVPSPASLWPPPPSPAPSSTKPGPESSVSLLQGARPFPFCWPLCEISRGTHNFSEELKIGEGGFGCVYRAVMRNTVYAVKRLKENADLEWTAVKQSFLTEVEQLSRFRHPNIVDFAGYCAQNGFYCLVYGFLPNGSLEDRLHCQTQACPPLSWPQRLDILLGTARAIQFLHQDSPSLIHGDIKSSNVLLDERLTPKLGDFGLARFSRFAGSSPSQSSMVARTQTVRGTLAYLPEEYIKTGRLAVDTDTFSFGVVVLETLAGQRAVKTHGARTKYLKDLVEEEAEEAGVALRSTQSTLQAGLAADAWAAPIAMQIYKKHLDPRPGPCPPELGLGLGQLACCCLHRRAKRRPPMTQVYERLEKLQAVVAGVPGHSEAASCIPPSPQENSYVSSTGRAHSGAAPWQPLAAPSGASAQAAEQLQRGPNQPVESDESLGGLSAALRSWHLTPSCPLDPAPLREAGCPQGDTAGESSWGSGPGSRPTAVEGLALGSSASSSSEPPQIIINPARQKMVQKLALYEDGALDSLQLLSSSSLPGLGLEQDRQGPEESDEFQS

[2] = Cytotoxicity against human HBL1 cells assessed as reduction in cell viability measured after 12 days by CellTiter-Glo assay; assay type: functional; details: time 12 day
[3] = target: T1, von Hippel-Lindau disease tumor suppressor/Interleukin-1 receptor-associated kinase 1; test: Protac activity at IRAK1/VHL E3 ligase in human OCILY10 assessed as induction of IRAK1 degradation measured after 24 hrs by Western blot analysis
Target sequence in this assay (P51617 whole entry): as the sequence (P51617 whole entry, looked up) above
Target sequence in this assay (P40337 whole entry): as the sequence (P40337 whole entry, looked up) above

[4] = target: T2, Cyclin-G-associated kinase (Homo sapiens) (UniProt O14976); test: Induction of GAK degradation in human Toledo cells at 1 uM measured after 6 hrs by quantitative mass spectrometry relative to control; assay type: cell-based
T2 sequence (whole entry): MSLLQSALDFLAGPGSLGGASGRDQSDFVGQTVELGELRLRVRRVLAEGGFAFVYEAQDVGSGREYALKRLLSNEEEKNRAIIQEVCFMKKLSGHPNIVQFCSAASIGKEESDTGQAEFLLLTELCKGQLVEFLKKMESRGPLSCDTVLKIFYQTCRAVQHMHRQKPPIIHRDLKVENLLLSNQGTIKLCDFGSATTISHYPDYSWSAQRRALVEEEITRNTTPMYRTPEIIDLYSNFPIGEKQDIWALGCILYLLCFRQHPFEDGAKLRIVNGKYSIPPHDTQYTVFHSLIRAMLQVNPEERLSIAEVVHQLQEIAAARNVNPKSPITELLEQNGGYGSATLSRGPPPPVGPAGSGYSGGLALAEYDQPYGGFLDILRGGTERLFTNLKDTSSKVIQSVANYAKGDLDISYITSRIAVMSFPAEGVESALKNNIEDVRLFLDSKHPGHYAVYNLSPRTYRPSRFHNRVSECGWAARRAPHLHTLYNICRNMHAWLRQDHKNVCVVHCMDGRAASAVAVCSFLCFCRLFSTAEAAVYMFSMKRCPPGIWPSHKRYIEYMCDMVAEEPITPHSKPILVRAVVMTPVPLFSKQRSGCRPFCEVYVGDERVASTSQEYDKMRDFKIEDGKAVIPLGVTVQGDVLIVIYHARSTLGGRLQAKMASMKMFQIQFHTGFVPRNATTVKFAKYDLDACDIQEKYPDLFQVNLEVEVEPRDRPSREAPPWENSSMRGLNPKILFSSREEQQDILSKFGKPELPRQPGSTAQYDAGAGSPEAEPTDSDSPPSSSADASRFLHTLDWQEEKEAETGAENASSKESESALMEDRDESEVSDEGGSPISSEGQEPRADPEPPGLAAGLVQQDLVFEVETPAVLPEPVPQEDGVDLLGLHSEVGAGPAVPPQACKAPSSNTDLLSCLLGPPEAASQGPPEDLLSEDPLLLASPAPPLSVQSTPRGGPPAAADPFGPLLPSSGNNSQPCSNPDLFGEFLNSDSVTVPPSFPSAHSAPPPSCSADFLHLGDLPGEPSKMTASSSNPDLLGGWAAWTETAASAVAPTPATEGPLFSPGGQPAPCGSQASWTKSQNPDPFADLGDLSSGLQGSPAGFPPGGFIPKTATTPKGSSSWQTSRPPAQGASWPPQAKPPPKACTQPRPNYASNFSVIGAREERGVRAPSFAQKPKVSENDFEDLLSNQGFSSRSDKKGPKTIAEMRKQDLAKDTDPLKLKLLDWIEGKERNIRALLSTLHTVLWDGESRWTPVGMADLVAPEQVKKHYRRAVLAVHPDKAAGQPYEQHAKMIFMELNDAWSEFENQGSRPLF

[5] = target: Interleukin-1 receptor-associated kinase 1 (Homo sapiens, UniProt P51617); test: Inhibition of IRAK1 in human HBL1 cells assessed as reduction in phosphorylated STAT3 level at up to 1 uM measured after 24 hrs by Western blot analysis; assay type: cell-based; details: dose microM <=1, time 24.0 hrs
[6] = target: T3, Serine/threonine-protein kinase 17B (Homo sapiens) (UniProt O94768); test: Inhibition of wild-type human full length DRAK2 (M1 to C372 residues) expressed in bacterial expression system at 1 uM by Kinomescan method
T3 sequence (whole entry): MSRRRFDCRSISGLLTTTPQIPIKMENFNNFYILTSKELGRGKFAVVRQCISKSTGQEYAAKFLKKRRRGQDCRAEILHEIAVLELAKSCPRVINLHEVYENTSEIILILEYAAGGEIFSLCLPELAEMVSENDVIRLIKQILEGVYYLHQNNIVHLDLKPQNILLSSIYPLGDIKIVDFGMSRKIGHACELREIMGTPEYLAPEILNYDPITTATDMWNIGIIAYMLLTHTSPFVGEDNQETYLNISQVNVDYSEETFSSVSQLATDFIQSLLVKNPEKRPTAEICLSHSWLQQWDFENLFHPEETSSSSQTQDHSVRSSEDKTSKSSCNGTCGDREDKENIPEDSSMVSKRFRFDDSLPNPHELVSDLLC

Sequence of Interleukin-1 receptor-associated kinase 1 (P51617 whole entry, looked up, the tested form may be a part): as the sequence (P51617 whole entry, looked up) above

For `COc1cc(N2CCC(OCC(=O)N[C@H](C(=O)N3C[C@H](O)C[C@H]3C(=O)N[C@@H](C)c3ccc(-c4scnc4C)cc3)C(C)(C)C)CC2)ccc1NC(=O)c1cccc(-c2ccn[nH]2)n1`, the Activity [1] was “inactive”, the Activity [2] was 60 nM and the DC50 [3] was 0.02 µM. The Activity [4] was 50%, the inhibition [5] was “Active” and the inhibition [6] was “Active”.
